Entries after “also recorded” stand apart in the source; their conditions may differ.
Experiments:
allo-specific nTregs = assay: Limiting dilution assay (LDA), frequency of allo-specific nTregs after 12 days with allogeneic moDCs; format: cell-based, human; settings: for mean fold expansion of allo-specific nTregs: 12 days with unrelated moDCs, compared to DMSO; for frequency of antigen-specific thymic Tregs: after 12 days of culture with allogeneic moDCs
Procedure: (§1) FIG. 1A show purified, human Tregs stimulated by allogeneic, monocyte-derived dendritic cells for 5-6 days, with HDTK032 or DMSO added once on day 0. The medium was also supplemented with IL-2 and IL-15. […] Proliferation was analyzed by Cell Trace Violet dilution among CD4^+, CD127^−, CD25^bright Tregs. […] FIG. 1C is a graph showing on-target alpha-tubulin acetylation of HDTK032 or DMSO treated Tregs. One representative experiment of 3 independent studies is shown. […] One representative donor Treg expansion of 4 independent experiments is shown. *P<0.05.
(§2) HDAC6-deficient mice are known to generate increased amounts of Tregs, both at stead-state in vivo and after polyclonal stimulation in vitro. However, such findings have never been translated to human immunity. Human nTregs (CD4^+, CD127^−, CD25+) were purified by magnetic bead isolation, stimulated with allogeneic moDCs, supplemented with IL-2, and treated with HDTK032, a selective and potent HDAC6 inhibitor, or DMSO (<0.01%) vehicle control once on day 0. After 5-6 days of culture, the nTregs were harvested and enumerated. […] Using the limiting dilution assay (LDA) we measured the precise frequency of allo-specific nTregs after stimulation with unrelated moDCs for 12 days. For these experiments, the HDAC6 inhibitors, HDTK032 and tubastatin, were compared against DMSO. Overall, the mean fold expansion was approximately 130-fold with either HDAC6 inhibitor compared to DMSO (FIG. 1D).

HDAC6 = assay: On-target alpha-tubulin acetylation in treated nTregs; format: cell-based, human; settings: compared to DMSO
Procedure: as §1
as §2, with “Overall, the mean fold expansion was approximately 130-fold with either HDAC6 inhibitor compared to DMSO (FIG. 1D).” left out

[1] = test system: T cell responders stimulated by allogeneic DCs; assay: Suppression assay of pre-treated nTregs in mixed leukocyte reactions; format: cell-based, human; settings: nTregs exposed to drug for 5 days; nTreg:T cell ratio 1:500 or 1:50; no drug in secondary culture; compared to DMSO-treated nTregs
Procedure: The suppressive capacity of DC-allostimulated thymic Tregs previously exposed to HDTK032, tubastatin, or DMSO was tested at different ratios of Treg to T cell responders stimulated by fresh allogeneic DCs (DC:responder T cell ratio of 1:30) in mixed leukocyte reactions. No additional drugs or DMSO were added to the medium. […] Data are from one representative experiment of 3 independent studies performed.
Next we investigated whether HDAC6 blockade impacted nTreg function. Purified nTregs were stimulated with allogeneic moDCs plus IL-2 while exposed to tubastatin, HDTK032, or DMSO for 5 days. The nTregs were harvested and cultured with autologous T cells (nTreg:T cell ratio 1:500 or 1:50) targeting fresh allogeneic moDCs. No additional drugs were added to the secondary cultures.

[2] = test system: NSG mice with human skin xenograft; assay: Human skin xenograft rejection model with adoptive transfer of pre-treated Tregs; format: in vivo; settings: day +21; 5x10^4 nTregs expanded ex vivo with drug (tubastatin 1 μM, HDTK032 2.5 μM); no systemic drug; compared to PBMCs alone
Procedure: NSG mice received a 1 cm^2 split thickness human skin graft. After 30 days of rest to permit engraftment, 5×10^6 human PBMCs (allogeneic to the skin) were injected into the mice. A week prior to PBMC injection, Tregs from the PBMC donor were expanded with mature DCs from the skin donor (Treg:DC ratio 30:1) and cultured for 5-6 days in the presence of DMSO (<0.1%), tubastatin (1 μM), HDTK032 (2.5 μM). In coordination with the PBMC injection, recipient mice were also inoculated with CD25-bead purified, Tregs (5×10^4) expanded with DMSO, tubastatin, HDTK032. A control group received PBMCs alone. FIG. 3A contains representative contour plots showing the purity (>95% pure) of the injected Tregs (CD4^+, CD127^−, CD25^bright, Foxp3+) for each experimental condition. […] Pooled data from 3 independent experiments, with up to 9 mice per experimental group. […]
FIGS. 5A to 5D show pathogenic Th17 cells are decreased in the periphery among mice treated with HDAC6-inhibited human Tregs. […] Recipient spleens were harvested on day +21, stained for Th17s (CD4^+, IL-17^+) or Tregs (CD4^+, CD127^−, CD25^bright, Foxp3^+), and analyzed by flow cytometry. […]
FIGS. 6A to 6C show circulating human Th1 cells are reduced after adoptive transfer of HDAC6-inhibited Tregs. […] Recipient spleens were harvested on day +21, stained for Th1s (CD4^+, IFNγ^+) or Th2s (CD4^+, IL-4^+), and analyzed by flow cytometry. […]

[3] = test system: human nTregs (CD4+, CD127-, CD25+); assay: Treg proliferation and expansion after stimulation with allogeneic moDCs, 5-6 days; format: cell-based; settings: drug added once on day 0, compared to DMSO
Procedure: as §1
as §2, with “Overall, the mean fold expansion was approximately 130-fold with either HDAC6 inhibitor compared to DMSO (FIG. 1D).” left out

autologous T responders = assay: Suppression assay of treated antigen-specific nTreg with 10:1 autologous T responders and allogeneic DCs; format: cell-based; settings: 10:1 autologous T responders; proliferation measured on day +6; compared to DMSO
Description: Suppression assay of DMSO- or HDAC-treated, antigen-specific nTreg in culture with 10:1 autologous T responders and allogeneic DCs. Proliferation measured on day +6. […] PAN=Panobinostat, NEXT=Nexturastat-B, TUBA=Tubastatin. DMSO is vehicle control.

antigen-specific nTreg = assay: Proliferation of antigen-specific nTreg with allogeneic DC, IL-2 and IL-15 (CPM, day +6); format: cell-based; settings: drugs added once on day 0; CPM on day +6
Description: Purified nTreg+allogeneic dendritic cells (DC)+IL-2+IL-15. Drugs added once on day 0. Proliferation measured as CPM on day +6.

SMILES	mean fold expansion of allo-specific nTregs (allo-specific nTregs)	frequency of antigen-specific thymic Tregs (allo-specific nTregs)	amount of acetylated α-tubulin (HDAC6)	suppressive potency of pre-treated nTregs [1]	skin graft rejection [2]	proliferative capacity of nTregs (CellTrace Violet dilution) ([3]; 5-6 days)	amount of nTregs ([3]; after 5-6 days of culture)	suppressive function of nTreg (autologous T responders)	proliferation and expansion of antigen-specific nTreg (antigen-specific nTreg)
O=C(NO)c1ccc2c(c1)OC[C@H](c1ccccc1)N(C(=O)C1CCOCC1)C2 [HDTK032, (3S)—N-hydroxy-4-(oxane-4-carbonyl)-3-phenyl-2,3,4,5-tetrahydro-1,4-benzoxazepine-8-carboxamide]	approximately 130 fold	increase	increase	significantly more potent	significantly reduced	increased	significantly increased; also recorded: increases		
CCCCN(Cc1ccc(C(=O)NO)cc1)C(=O)Nc1ccc2cn[nH]c2c1 [Nexturastat-B, Nexturastat B]								significantly increase	
CN1CCc2c(c3ccccc3n2Cc2ccc(C(=O)NO)cc2)C1 [Tubastatin A, reference compound]	approximately 130 fold	increase		significantly more potent	significantly reduced			significantly increase	significantly enhance
